# Assays:
# [1] = biological target: T1, SPT (SPT2-expressing membrane fraction: human SPT1, human SPT2 and human ssSPTa) (Homo sapiens, UniProt O15269+O15270); assay: SPT enzyme inhibition test (Test Example 1); format: biochemical; conditions: read-out: Rate of inhibition (%) at 1 μM
# T1 construct: Full-length human SPT1, human SPT2 and human ssSPTa used; made in house; host or cells: FreeStyle 293 cells (pcDNA3.1 vectors, cotransfection); crude membrane fraction used
# T1 sequence (O15269 1-473): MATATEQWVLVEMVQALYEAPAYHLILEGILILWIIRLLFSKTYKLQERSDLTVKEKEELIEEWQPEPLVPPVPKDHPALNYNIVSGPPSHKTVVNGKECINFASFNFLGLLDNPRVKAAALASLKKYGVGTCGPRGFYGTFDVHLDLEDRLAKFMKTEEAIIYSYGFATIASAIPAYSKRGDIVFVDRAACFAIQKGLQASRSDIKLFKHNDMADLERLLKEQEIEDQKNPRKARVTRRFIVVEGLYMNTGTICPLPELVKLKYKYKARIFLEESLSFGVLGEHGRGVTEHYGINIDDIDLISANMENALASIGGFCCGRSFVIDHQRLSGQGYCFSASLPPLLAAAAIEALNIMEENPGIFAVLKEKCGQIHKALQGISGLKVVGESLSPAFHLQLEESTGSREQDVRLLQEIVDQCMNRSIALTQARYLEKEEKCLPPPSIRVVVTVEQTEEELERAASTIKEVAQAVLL
# T1 sequence (O15270 1-562): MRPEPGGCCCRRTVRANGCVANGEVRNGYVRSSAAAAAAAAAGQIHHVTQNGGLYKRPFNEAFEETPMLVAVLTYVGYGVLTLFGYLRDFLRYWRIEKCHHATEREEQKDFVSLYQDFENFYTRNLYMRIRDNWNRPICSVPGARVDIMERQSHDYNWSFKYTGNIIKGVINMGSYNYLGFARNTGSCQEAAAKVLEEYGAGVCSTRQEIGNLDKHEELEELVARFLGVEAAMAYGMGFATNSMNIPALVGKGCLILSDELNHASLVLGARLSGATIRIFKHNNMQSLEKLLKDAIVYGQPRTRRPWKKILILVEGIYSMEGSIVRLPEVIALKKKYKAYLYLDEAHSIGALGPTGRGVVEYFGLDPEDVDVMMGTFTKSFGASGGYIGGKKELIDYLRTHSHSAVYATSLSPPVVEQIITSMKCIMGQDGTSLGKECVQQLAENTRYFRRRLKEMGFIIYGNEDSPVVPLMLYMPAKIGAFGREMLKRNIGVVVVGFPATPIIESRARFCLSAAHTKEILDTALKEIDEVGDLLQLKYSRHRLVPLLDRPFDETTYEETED
# T1 sequence (Q969W0 1-71 partner): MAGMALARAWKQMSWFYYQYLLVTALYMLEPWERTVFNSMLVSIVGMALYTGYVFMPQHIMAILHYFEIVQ
# Experimental: After culture for 3 days, the cells were recovered and frozen at −80° C. to obtain expressing cells. The frozen cells were suspended in a 50 mM Hepes buffer (pH 7.5) containing 250 mM sucrose, 5 mM ethylenediaminetetraacetic acid (EDTA), 5 mM dithiothreitol (DTT) and Complete, EDTA-free (Roche Applied Science, Penzberg, Upper Bavaria, Germany). The cells were disrupted (on ice, 20,000 rpm, 20 sec×2) using POLYTORON (Central Scientific Commerce, Inc.). After centrifugation at 2000 rpm (850×g) for 10 minutes, the supernatant was recovered. Subsequently, the supernatant was centrifuged at 40,000 rpm (186,010×g) for 60 minutes, and the supernatant was discarded. The pellets were suspended in a 50 mM Hepes buffer (pH 7.5) containing 5 mM EDTA, 5 mM DTT and Complete, EDTA-free, passed through a 40-μm cell strainer and stored at −80° C. The resultant was used as a SPT2-expressing membrane fraction. The protein concentration was determined using CBB Protein Assay with bovine serum albumin used as standards.
# 5 μL of each test compound was mixed with 10 μL of the 100 μg/mL SPT2-expressing membrane fraction using an assay buffer (100 mM Hepes (pH 8.0) containing 2.5 mM EDTA, 5 mM DTT and 0.01% fatty acid-free bovine serum albumin), and the mixture was left standing at room temperature for 60 minutes. Subsequently, 5 μL of a substrate solution containing 2 mM L-serine and 20 μM palmitoyl CoA was added thereto, and an enzyme reaction was carried out in a 384-well plate using 20 μL in total of the reaction system. After reaction at room temperature for 15 minutes, the reaction was terminated by the addition of 20 μL of a 2% aqueous formic acid solution. Subsequently, 40 μL of acetonitrile containing 600 nM C17-sphinganine (Avanti Polar Lipids, Inc., Alabaster, Ala., U.S.) was added thereto as an internal standard. The reaction sample was subjected to on-line solid-layer extraction using RapidFire 300 (Agilent Technologies Inc., Santa Clara, Calif., U.S.). […] Mass chromatograms were obtained using Analyst software (version 1.5.0, AB SCIEX). Their mass chromatogram areas were respectively calculated, and the rate of inhibition (%) by the test compound was calculated using an area ratio (the value of the reaction product was divided by the value of the internal standard).
# [2] = test system: lung adenocarcinoma cell line HCC4006; assay: HCC4006 cell growth inhibition test (Test Example 2); format: cell-based; conditions: Homo sapiens, 120 h, HCC4006 cells, culture for 5 days, CellTiter-Glo; for inhibition at 1 µM: 1 μM test compound, read-out: Rate of inhibition (%) at 1 μM
# Experimental: A lung adenocarcinoma cell line HCC4006 (ATCC) was cultured using an RPMI-1640 medium (Wako Pure Chemical Industries, Ltd.) containing 10% fetal bovine serum and penicillin/streptomycin. 250 cells per well were inoculated into 40 μL of a medium in a 384-well culture plate. On the next day, 10 μL of each test compound was added to the cells. After culture for 5 days, the medium was discarded, and 30 μL of CellTiter-Glo Luminescent Cell Viability Assay solution (Promega Corp., Fitchburg, Wis., U.S.) was added to each well. Light emission signals were measured using EnVision (PerkinElmer, Inc., Waltham, Mass., U.S.).
# The rate of inhibition (%) by the test compound was calculated according to the following expression: Rate of inhibition (%)=(1−(Count of the test compound−Blank)/(Control−Blank))×100
# In the above expression, a count under compound non-addition conditions was indicated as a control, and a count under cell-free conditions was indicated as a blank.
Compound,inhibition at 1 µM [1],inhibition at 1 µM [2],"inhibition at 0.3 µM ([2]; 0.3 μM test compound, read-out: Rate of inhibition at 0.3 μM)"
"Cc1cc(C(=O)N[C@@H]2CCN(C(=O)c3cc(Cl)c4nccnc4c3)C[C@@H]2c2ccc(F)cc2)n(C)n1 [Example 58B, N-((3S,4R)-1-((8-chloroquinoxalin-6-yl)carbonyl)-3-(4-fluorophenyl)piperidin-4-yl)-1,3-dimethyl-1H-pyrazole-5-carboxamide]",101%,49%,–
"Cc1nn(C)c(Cl)c1C(=O)N[C@@H]1CCN(C(=O)c2cc(Cl)c3nccnc3c2)C[C@@H]1c1ccc(F)cc1 [Example 59B, 5-Chloro-N-((3S,4R)-1-((8-chloroquinoxalin-6-yl)carbonyl)-3-(4-fluorophenyl)piperidin-4-yl)-1,3-dimethyl-1H-pyrazole-4-carboxamide]",101%,–,53%
"COc1cc(C(=O)N2CC[C@@H](NC(=O)c3ncccc3C(F)(F)F)[C@@H](c3ccccc3)C2)cnc1OC [Example 64B, N-((3S,4R)-1-((5,6-dimethoxypyridin-3-yl)carbonyl)-3-phenylpiperidin-4-yl)-3-(trifluoromethyl)pyridine-2-carboxamide]",100%,49%,–
"COc1cc(C(=O)N2CC[C@@H](NC(=O)c3ccccc3OC(F)(F)F)[C@@H](c3ccccc3)C2)cnc1OC [Example 70B, N-((3S,4R)-1-((5,6-dimethoxypyridin-3-yl)carbonyl)-3-phenylpiperidin-4-yl)-2-(trifluoromethoxy)benzamide]",100%,56%,–
"Cc1cc(C(=O)N2CC[C@@H](NC(=O)c3ncccc3C(F)(F)F)[C@@H](c3ccccc3)C2)cc2nccnc12 [Example 74B, N-((3S,4R)-1-((8-Methylquinoxalin-6-yl)carbonyl)-3-phenylpiperidin-4-yl)-3-(trifluoromethyl)pyridine-2-carboxamide]",100%,45%,–
"COc1cc(C(=O)N2CCC(NC(=O)c3ccccc3Cl)c3c2cnn3C)cnc1OC (centres unmarked) [Example 80A, 2-chloro-N-(4-((5,6-dimethoxypyridin-3-yl)carbonyl)-1-methyl-4,5,6,7-tetrahydro-1H-pyrazolo[4,3-b]pyridin-7-yl)benzamide]",99%,44%,–
"COc1ncc(C(=O)N2CCC(NC(=O)c3ccccc3Cl)c3c2cnn3C)cc1Cl (centres unmarked) [Example 84A, 2-chloro-N-(4-((5-chloro-6-methoxypyridin-3-yl)carbonyl)-1-methyl-4,5,6,7-tetrahydro-1H-pyrazolo[4,3-b]pyridin-7-yl)benzamide]",98%,32%,–
"COc1ncc(C(=O)N2CCC(NC(=O)c3ccccc3C(F)(F)F)c3c2cnn3C)cc1Cl (centres unmarked) [Example 85A, N-(4-((5-chloro-6-methoxypyridin-3-yl)carbonyl)-1-methyl-4,5,6,7-tetrahydro-1H-pyrazolo[4,3-b]pyridin-7-yl)-2-(trifluoromethyl)benzamide]",99%,39%,–
"Cn1nc(C(F)(F)F)cc1C(=O)N[C@@H]1CCN(C(=O)c2cc(Cl)c3nccnc3c2)C[C@@H]1c1ccc(F)cc1 [Example 96B, N-((3S,4R)-1-((8-chloroquinoxalin-6-yl)carbonyl)-3-(4-fluorophenyl)piperidin-4-yl)-1-methyl-3-(trifluoromethyl)-1H-pyrazole-5-carboxamide]",102%,49%,–
"COc1ccc(C(=O)N2CCC(NC(=O)c3ncccc3C(F)(F)F)c3c2cnn3C)cc1OC (centres unmarked) [Example 100A, N-(4-(3,4-dimethoxybenzoyl)-1-methyl-4,5,6,7-tetrahydro-1H-pyrazolo[4,3-b]pyridin-7-yl)-3-(trifluoromethyl)pyridine-2-carboxamide]",97%,39%,–
"CS(=O)(=O)c1ccc(C(=O)N2CC[C@@H](NC(=O)c3ccccc3OC(F)(F)F)[C@@H](c3ccccc3)C2)cc1Cl [Example 102B, N-((3S,4R)-1-(3-chloro-4-(methylsulfonyl)benzoyl)-3-phenylpiperidin-4-yl)-2-(trifluoromethoxy)benzamide]",100%,46%,–
"Cn1cnc2ccc(C(=O)N3CC[C@@H](NC(=O)c4ccccc4OC(F)(F)F)[C@@H](c4ccccc4)C3)cc21 [Example 104B, N-((3S,4R)-1-((1-methyl-1H-benzimidazol-6-yl)carbonyl)-3-phenylpiperidin-4-yl)-2-(trifluoromethoxy)benzamide]",101%,53%,–
"COc1ncc(C(=O)N2CCC(NC(=O)c3ccc(Cl)cc3C(F)(F)F)c3c2cnn3CC(F)F)cc1Cl (centres unmarked) [Example 126A, 4-Chloro-N-(4-((5-chloro-6-methoxypyridin-3-yl)carbonyl)-1-(2,2-difluoroethyl)-4,5,6,7-tetrahydro-1H-pyrazolo[4,3-b]pyridin-7-yl)-2-(trifluoromethyl)benzamide]",101%,45%,–
"Cn1ncc(C(=O)N[C@@H]2CCN(C(=O)c3ccc4nccnc4c3)C[C@@H]2c2ccccc2)c1Cl [Example 132B, 5-chloro-1-methyl-N-((3S,4R)-3-phenyl-1-(quinoxalin-6-ylcarbonyl)piperidin-4-yl)-1H-pyrazole-4-carboxamide]",98%,45%,–
"COc1cc(C(=O)N2CCC(NC(=O)c3ccccc3OC(F)(F)F)c3c2cnn3C)cnc1OC (centres unmarked) [Example 133A, N-(4-((5,6-Dimethoxypyridin-3-yl)carbonyl)-1-methyl-4,5,6,7-tetrahydro-1H-pyrazolo[4,3-b]pyridin-7-yl)-2-(trifluoromethoxy)benzamide]",101%,50%,–
"COc1cc(C(=O)N2CC[C@@H](NC(=O)c3cnccc3C(F)(F)F)[C@@H](c3ccccc3)C2)cnc1OC [Example 139B, N-((3S,4R)-1-((5,6-dimethoxypyridin-3-yl)carbonyl)-3-phenylpiperidin-4-yl)-4-(trifluoromethyl)nicotinamide]",100%,52%,–
